Data on 6 molecules can be found in patent US9150489B2, “1-(2-fluorobiphenyl-4-yl)-alkyl carboxylic acid derivatives for the therapy of transthyretin amyloidosis” (CHIESI FARMACEUTICI S.p.A., priority 2010, dated 2015).

In assay [1] the target is T1, wild-type human transthyretin (TTR) (Homo sapiens, UniProt P02766).
T1 construct: made in house; host or cells: E. coli
To be noted: cited from earlier work.

Assay [2] addresses T1, wild-type human transthyretin (TTR). Briefly: Competitive binding to wild-type human TTR by fluorometric techniques. Conditions: 20° C.; for emission peak of TTR-bound ANS in the presence of the compound / emission peak of TTR-bound tafamidis in the presence of the compound / emission peak of TTR-bound trans-resveratrol in the presence of the compound: 10 μM compound; for emission peak of TTR-bound ANS in the presence of the compound: 10 μM ANS, excitation 360 nm; for emission peak of TTR-bound ANS in the presence of the compound / emission peak of TTR-bound trans-resveratrol in the presence of the compound: 5 μM TTR; for emission peak of TTR-bound tafamidis in the presence of the compound: 10 μM tafamidis, 10 μM TTR; for emission peak of TTR-bound tafamidis in the presence of the compound / emission peak of TTR-bound trans-resveratrol in the presence of the compound: excitation 320 nm; for emission peak of TTR-bound trans-resveratrol in the presence of the compound: 10 μM trans-resveratrol; for relative binding affinity to TTR (competitive binding assays taken together): 50 mM Na phosphate buffer, pH 7.2, 150 mM NaCl.

In another assay the target is T2, V30M TTR (Homo sapiens, UniProt P02766, V50M).
T2 construct: made in house; host or cells: E. coli
Put plainly: In vitro fibrillogenesis by V30M TTR at acidic pH (turbidity at 400 nm). The class given is biochemical. To be noted: 3.6 μM TTR, 10.8 μM inhibitor, pH 4.4, 37° C., average of two measurements. From the text: (§1) The aim of this study was to evaluate the inhibitory effect of the same representative compounds of the inventions tested in Example 1 in vitro fibrillogenesis by human wild-type TTR and two major amyloidogenic variants (V30M and V 122I) at moderately acidic pH, in comparison to reference compounds. To highlight the inhibitory effect of CHF 5074 and CHF4795 versus diflunisal and tafamidis on in vitro fibrillogenesis by wild-type, V30M and V122I TTR at moderately acid pH, we followed the kinetics of fibril formation by these proteins, by monitoring the increase in turbidity at 400 nm as reported in Johnson et al., 2008, J. Med. Chem., 51:260 (which is incorporated herein by reference), upon incubation with TTR. The final concentration of TTR was of 3.6 μM, which is close to its physiological plasma concentration, with fibrillogenesis inhibitors at a final concentration of 10.8 μM. According to the procedure adopted for other inhibitors of fibrillogenesis (Johnson et al., 2008, J. Med. Chem., 51:260), TTR was incubated with each inhibitor at neutral pH (10 mM Na phosphate buffer, pH 7.2, 100 mM KCl, 1 mM EDTA) for 30 minutes at ambient temperature, prior to the incubation of the protein at acidic pH (200 mM Na Acetate buffer, pH 4.4, 100 mM KCl, 1 mM EDTA) at 37° C. in order to promote fibrillogenesis. Inhibitory effect data represent the average of two independent measurements for each compound.

For a further assay, the target named is T3, human wild-type TTR (Homo sapiens, UniProt P02766).
T3 construct: made in house; host or cells: E. coli
Put plainly: In vitro fibrillogenesis by wild-type TTR at acidic pH (turbidity at 400 nm). Format: biochemical. Conditions: 3.6 μM TTR, 10.8 μM inhibitor, pH 4.4, 37° C., average of two measurements; for inhibition at 10.8 µM: read-out: inhibitory effect on wild-type TTR fibrillogenesis.
Description: as §1

A further assay concerns the target T4, V 122I TTR (Homo sapiens, UniProt P02766, V142I).
T4 construct: made in house; host or cells: E. coli
Briefly: In vitro fibrillogenesis by V122I TTR at acidic pH (turbidity at 400 nm). Format: biochemical. To be noted: 3.6 μM TTR, 10.8 μM inhibitor, pH 4.4, 37° C., average of two measurements; for inhibition at 10.8 µM: read-out: inhibitory effect on V 122I TTR fibrillogenesis.
Description: as §1

The structures appear in SMILES notation.

With `O=S(=O)(O)c1cccc2cccc(Nc3ccccc3)c12` [ANS, 8-anilino-1-naphthalene sulfonate], the “binding affinity for TTR (known property of the fluorescent probes)” value in assay [1] was “relatively low binding affinity”.

Take `CC(C)(C(=O)O)c1ccc(-c2cc(Cl)cc(Cl)c2)c(F)c1` [CHF 4795, 2-methyl-(3′,5′-dichloro-2-fluoro-biphenyl-4-yl) propionic acid]: in assay [2] (pH 7.2), the “emission peak of TTR-bound ANS in the presence of the compound” value was “nearly completely abolished”, the “emission peak of TTR-bound tafamidis in the presence of the compound” value is listed as “nearly completely shifted to that of unbound tafamidis” and the “emission peak of TTR-bound trans-resveratrol in the presence of the compound” value is recorded as “nearly completely abolished”. Moreover, in assay [2], the “relative binding affinity to TTR (competitive binding assays taken together)” value is on record as “higher binding affinity to TTR as compared to trans-resveratrol”. On V30M TTR, the “inhibitory effect on V30M TTR fibrillogenesis” value is reported as “inhibitory effects similar to those observed with wild-type TTR”. Moreover, the “inhibitory effect on wild-type TTR fibrillogenesis” value against human wild-type TTR is on record as “about 75%”. Further, the “inhibitory effect on V 122I TTR fibrillogenesis” value against V 122I TTR is listed as “about 92%”.

For the molecule `O=C(O)C1(c2ccc(-c3ccc(Cl)c(Cl)c3)c(F)c2)CC1` [CHF 5074, 1-(3′,4′-dichloro-2-fluorobiphenyl-4-yl)cyclopropanecarboxylic acid], in assay [2] (pH 7.2), the “emission peak of TTR-bound ANS in the presence of the compound” value is recorded as “nearly completely abolished”, the “emission peak of TTR-bound tafamidis in the presence of the compound” value is “nearly completely shifted to that of unbound tafamidis” and the “emission peak of TTR-bound trans-resveratrol in the presence of the compound” value was “nearly completely abolished”. The “relative binding affinity to TTR (competitive binding assays taken together)” value in assay [2] is given as “higher binding affinity to TTR as compared to trans-resveratrol”. Further, the “inhibitory effect on V30M TTR fibrillogenesis” value against V30M TTR is “inhibitory effects similar to those observed with wild-type TTR”. Also, the inhibition at 10.8 µM at human wild-type TTR was approximately 75%. The inhibition at 10.8 µM at V 122I TTR is approximately 92%.

As for `O=C(O)c1cc(-c2ccc(F)cc2F)ccc1O` [diflunisal, reference compound], the “inhibitory effect on V30M TTR fibrillogenesis” value against V30M TTR is given as “inhibitory effects similar to those observed with wild-type TTR”. For the same molecule, the results for the inhibition at 10.8 µM at human wild-type TTR and at V 122I TTR were approximately 75% and approximately 92%, respectively.

Regarding `O=C(O)c1ccc2nc(-c3cc(Cl)cc(Cl)c3)oc2c1` [tafamidis, 2-(3,5-dichlorophenyl)-1,3-benzoxazole-6-carboxylic acid, reference compound], the “inhibitory effect on V30M TTR fibrillogenesis” value on V30M TTR is on record as “inhibitory effects similar to those observed with wild-type TTR”. The inhibition at 10.8 µM was approximately 75% on human wild-type TTR and approximately 92% at V 122I TTR.

`Oc1ccc(/C=C/c2cc(O)cc(O)c2)cc1` [trans-resveratrol, reference compound]: in assay [2] (10 μM TTR-bound diflunisal, equimolar compound, excitation 340 nm, pH 7.2), the “fluorescence emission of TTR-bound diflunisal exposed to equimolar compound” value was “a spectrum similar to that of TTR-bound trans-resveratrol rather than to that of TTR-bound diflunisal was obtained”. For the same molecule, the “binding affinity for TTR (known property of the fluorescent probes)” value in assay [1] was “high binding affinity, greater than that of thyroxine”.
